Measured values from patent publication US20150051278A1, “METHOD OF EXTERMINATING HARMFUL INSECT” (KAO CORPORATION, priority 2012, published 2015).

Experiments:
Type in all cases: in vivo
planthopper = assay: Insecticidal test I; settings: planthopper on rice seedling, 3 days after spraying
Method: A seedling of rice plant was grown in a 12 cm pot until the plant height reaches 15 cm. Ten individuals of planthopper, which had passed 3 to 5 days after emergence, were applied per one rice plant. The rice plant was trial-cultured for three repetitions. With 1 L of water, an insecticide was mixed in such an amount that the concentration of each of the compounds at the time of spraying was the amount indicated in Table 4, thereby preparing the spray liquid of insecticide. This spray liquid was sprayed on the leaf surface of the seedling of rice plant attached with planthoppers in the application amount indicated in Table 4. After air drying, the seedling of rice plant sprayed with the spray liquid was covered with a wire gauze cylinder. Three days later, the number of surviving insects was measured, and the insect killing rate (indicated as the “insect killing rate I” in Table 4) was calculated by the following equation. It means that the effect of agricultural chemical (insecticidal effect) is high as the value of the insect killing rate is high.
Insect killing rate (%)=(the number of surviving insects in non-treated area−the number of surviving insects in treated area)/the number of surviving insects in non-treated area×100

cotton aphid = assay: Insecticidal test II; settings: cotton aphid on cabbage leaf, 1 day after spraying
Method: A cabbage seedling was grown in a 12 cm pot until to be a ten-leaf stage. The leaf of cabbage was cut and placed in a petri dish with a diameter of 9 cm, and 15 individuals of cotton aphid were trial cultured for three repetitions. With 1 L of water, the insecticide was mixed in such an amount that the concentration of each of the compounds at the time of spraying was the amount indicated in Table 4, thereby preparing the spray liquid of insecticide. This spray liquid was sprayed to the leaf surface of the cabbage attached with cotton aphids in the application amount indicated in Table 4. After air drying, the petri dish was covered with a lid, and an oxygen permeable seal was sealed around the petri dish so as to prevent the escape of the aphid therefrom. One day later, the number of surviving insects was measured, and the insect killing rate (indicated as the “insect killing rate II” in Table 4) was calculated by the following equation. It means that the effect of agricultural chemical (insecticidal effect) is high as the value of the insect killing rate is high. Insect killing rate (%)=(the number of surviving insects in non-treated area−the number of surviving insects in treated area)/the number of surviving insects in non-treated area×100

Kanzawa spider mite = assay: Acaricidal test; settings: Kanzawa spider mite on kidney bean, 3 days after spraying
Method: A kidney bean was grown in a 12 cm pot until to be a 5-leaf stage. Thirty individuals of Kanzawa spider mite per one plant were implanted for three repetitions. To 1 L of water, the insecticide was mixed such that the concentration of each of the compounds at the time of spraying becomes the amount indicated in Table 4 and Table 6, thereby preparing the spray liquid of insecticide. This spray liquid was sprayed on the leaf surface of the kidney bean attached with Kanzawa spider mites in the application amount indicated in Table 4 and Table 6. After air drying, the kidney bean sprayed with the spray liquid was covered with a wire gauze cylinder. Three days later, the number of surviving mites was measured, and the mite killing rate was calculated by the following equation. It means that the effect of agricultural chemical (acaricidal effect) is high as the value of the mite killing rate is high. Mite killing rate (%)=(the number of surviving mites in non-treated area−the number of surviving mites in treated area)/the number of surviving mites in non-treated area×100

[1] = application amount 100 L/10 a, (A)+(B) concentration 1000 ppm

Substance | Insect killing rate I (planthopper; [1]) | Insect killing rate II (cotton aphid; [1]) | Mite killing rate (Kanzawa spider mite; [1]) | Insect killing rate I (planthopper; 100 L/10 a, 2000 ppm) | Insect killing rate II (cotton aphid; 100 L/10 a, 2000 ppm) | Mite killing rate (Kanzawa spider mite; 100 L/10 a, 2000 ppm)
Monocapric acid monoglycerine [compound 7] | 46% | 57% | 40% |  |  | 
Octyl alcohol [compound 22] |  |  |  | 24% | 34% | 22%
